According to ChEMBL document CHEMBL3885861, “Open TG-GATES”:

Species on record: Rattus norvegicus
Assay: Open TG-GATES - Regimen: Single
Assay type: toxicity, organism-based, Sprague-Dawley
Design: regimen Single, gender Male, age 6 weeks
Conditions: in vivo, po, 0 mg/kg, route gavage, dose level Control; for APTT / Bas / Eos / Fbg / Hb / Ht / Lym / MCH / MCHC / MCV / Mono / Neu / PT / Plat / RBC / Ret / WBC: tissue Blood; for KIDNEY_L / KIDNEY_R / KIDNEY_TOTAL: tissue Kidney; for LIVER: tissue Liver; for A/G / ALP / ALT / AST / BUN / CRE / Ca / Cl / DBIL / GLC / IP / K / LDH / Na / PL / RALB / TBIL / TC / TG / TP / gamma-GTP: tissue Plasma

COc1ccc(Cc2nccc3cc(OC)c(OC)cc23)cc1OC [PAPAVERINE]
TERMINAL_BW (3 h): 223.5 g | APTT (3 h): 21.8 s | Bas (3 h): 0% | Eos (3 h): 0.8% | Fbg (3 h): 332.6 mg/dL | Hb (3 h): 13.5 g/dL | Ht (3 h): 40.3% | Lym (3 h): 80.6% | MCH (3 h): 21.3 pg | MCHC (3 h): 33.5% | MCV (3 h): 63.4 fL | Mono (3 h): 2.2% | Neu (3 h): 15% | PT (3 h): 15.8 s | Plat (3 h): 108.7 x10_4/uL | RBC (3 h): 637.4 x10_4/ul | Ret (3 h): 7.9% | WBC (3 h): 110.9 x10_2/uL | KIDNEY_L (3 h): 1 g | KIDNEY_R (3 h): 1 g | KIDNEY_TOTAL (3 h): 2 g | LIVER (3 h): 10.2 g | A/G (3 h): 1.2 | ALP (3 h): 1651.2 IU/L | ALT (3 h): 42.8 IU/L | AST (3 h): 73 IU/L | BUN (3 h): 14 mg/dL | CRE (3 h): 0.1 mg/dL | Ca (3 h): 11 mg/dL | Cl (3 h): 108.6 meq/L | DBIL (3 h): 0 mg/dL | GLC (3 h): 193.6 mg/dL | IP (3 h): 7.8 mg/dL | K (3 h): 4 meq/L | LDH (3 h): 147.2 IU/L | Na (3 h): 141.6 meq/L | PL (3 h): 140.2 mg/dL | RALB (3 h): 3 g/dL | TBIL (3 h): 0.01 mg/dL | TC (3 h): 82.6 mg/dL | TG (3 h): 55 mg/dL | TP (3 h): 5.5 g/dL | gamma-GTP (3 h): 2 IU/L | TERMINAL_BW (6 h): 214 g | APTT (6 h): 23 s | Bas (6 h): 0% | Eos (6 h): 0.6% | Fbg (6 h): 325.8 mg/dL | Hb (6 h): 13.8 g/dL | Ht (6 h): 41.4% | Lym (6 h): 82.8% | MCH (6 h): 20.8 pg | MCHC (6 h): 33.3% | MCV (6 h): 62.5 fL | Mono (6 h): 2.2% | Neu (6 h): 13.4% | PT (6 h): 15.9 s | Plat (6 h): 116.4 x10_4/uL | RBC (6 h): 664 x10_4/ul | Ret (6 h): 7.4% | WBC (6 h): 118.9 x10_2/uL | KIDNEY_L (6 h): 0.9 g | KIDNEY_R (6 h): 0.9 g | KIDNEY_TOTAL (6 h): 1.8 g | LIVER (6 h): 9.4 g | A/G (6 h): 1.2 | ALP (6 h): 1310.2 IU/L | ALT (6 h): 38.4 IU/L | AST (6 h): 74.4 IU/L | BUN (6 h): 10 mg/dL | CRE (6 h): 0.1 mg/dL | Ca (6 h): 11 mg/dL | Cl (6 h): 106.2 meq/L | DBIL (6 h): 0.002 mg/dL | GLC (6 h): 180.6 mg/dL | IP (6 h): 8.8 mg/dL | K (6 h): 4.3 meq/L | LDH (6 h): 159.6 IU/L | Na (6 h): 140.8 meq/L | PL (6 h): 131.6 mg/dL | RALB (6 h): 2.9 g/dL | TBIL (6 h): 0.01 mg/dL | TC (6 h): 79.2 mg/dL | TG (6 h): 47.6 mg/dL | TP (6 h): 5.3 g/dL | gamma-GTP (6 h): 2 IU/L | TERMINAL_BW (9 h): 213.9 g | APTT (9 h): 22.9 s | Bas (9 h): 0% | Eos (9 h): 1% | Fbg (9 h): 312.8 mg/dL | Hb (9 h): 13.1 g/dL | Ht (9 h): 39.9% | Lym (9 h): 81.2% | MCH (9 h): 20.3 pg | MCHC (9 h): 33% | MCV (9 h): 61.6 fL | Mono (9 h): 2.4% | Neu (9 h): 14.4% | PT (9 h): 15.6 s | Plat (9 h): 107.7 x10_4/uL | RBC (9 h): 647.6 x10_4/ul | Ret (9 h): 7.9% | WBC (9 h): 110.4 x10_2/uL | KIDNEY_L (9 h): 0.9 g | KIDNEY_R (9 h): 0.9 g | KIDNEY_TOTAL (9 h): 1.9 g | LIVER (9 h): 9.1 g | A/G (9 h): 1.3 | ALP (9 h): 1489.8 IU/L | ALT (9 h): 41.2 IU/L | AST (9 h): 69.4 IU/L | BUN (9 h): 11.2 mg/dL | CRE (9 h): 0.1 mg/dL | Ca (9 h): 10.9 mg/dL | Cl (9 h): 105.8 meq/L | DBIL (9 h): 0 mg/dL | GLC (9 h): 190.8 mg/dL | IP (9 h): 9.1 mg/dL | K (9 h): 4.2 meq/L | LDH (9 h): 169 IU/L | Na (9 h): 140.6 meq/L | PL (9 h): 134.6 mg/dL | RALB (9 h): 3 g/dL | TBIL (9 h): 0.016 mg/dL | TC (9 h): 78.4 mg/dL | TG (9 h): 75 mg/dL | TP (9 h): 5.3 g/dL | gamma-GTP (9 h): 1.6 IU/L | TERMINAL_BW (24 h): 237.4 g | APTT (24 h): 21.6 s | Bas (24 h): 0% | Eos (24 h): 1% | Fbg (24 h): 315.8 mg/dL | Hb (24 h): 13.5 g/dL | Ht (24 h): 40% | Lym (24 h): 81% | MCH (24 h): 21 pg | MCHC (24 h): 33.6% | MCV (24 h): 62.6 fL | Mono (24 h): 2.8% | Neu (24 h): 14.6% | PT (24 h): 16 s | Plat (24 h): 106.2 x10_4/uL | RBC (24 h): 639.4 x10_4/ul | Ret (24 h): 7.5% | WBC (24 h): 110.4 x10_2/uL | KIDNEY_L (24 h): 1 g | KIDNEY_R (24 h): 1 g | KIDNEY_TOTAL (24 h): 2.1 g | LIVER (24 h): 11.3 g | A/G (24 h): 1.3 | ALP (24 h): 1563.2 IU/L | ALT (24 h): 46.2 IU/L | AST (24 h): 72.2 IU/L | BUN (24 h): 15.4 mg/dL | CRE (24 h): 0.1 mg/dL | Ca (24 h): 10.8 mg/dL | Cl (24 h): 106.2 meq/L | DBIL (24 h): 0 mg/dL | GLC (24 h): 198.2 mg/dL | IP (24 h): 7.9 mg/dL | K (24 h): 4.4 meq/L | LDH (24 h): 179.4 IU/L | Na (24 h): 143 meq/L | PL (24 h): 142.6 mg/dL | RALB (24 h): 3 g/dL | TBIL (24 h): 0.01 mg/dL | TC (24 h): 77 mg/dL | TG (24 h): 87.8 mg/dL | TP (24 h): 5.3 g/dL | gamma-GTP (24 h): 1.8 IU/L
